Measured values from patent US20250288570A1, “TREATMENT OF NEUROLOGICAL DISORDERS” (Praxis Precision Medicines, Inc., priority 2022, published 2025).
“Also recorded” adds a separate entry of the source.

How the values were obtained:
[1] = test system: MES-induced tonic hindlimb extension in male CD-1 mice; assay: MES acute seizure model, tonic hindlimb extension, Example 9; type: in vivo, mouse; conditions: for ED50: Mus musculus, read-out: ED50 value, protection from MES-induced tonic hindlimb extension
Protocol: The maximal electroshock (MES) acute seizure model of generalized seizures is validated for evaluating the anticonvulsant potential of compounds. […] The objective of this study was to evaluate the effect of Compound 1 on maximal electroshock induced seizure in male CD-1 mice.
Male CD-1 mice (Vital River, Beijing, China) approximately 6 weeks old were obtained for the study. Body weights were between 20.5 grams and 38.5 grams at the time the experiments were carried out. […] Food and water were available ad libitum.
Treatment was conducted using Compound 1 and 35% 2-hydroxypropyl-β-cyclodextrin (35% HPBCD, used as a negative control). Compound 1 stock solution was prepared fresh each experiment day in 35% HPBCD and protected from light. The stock solution was diluted with vehicle for lower doses.
Mice were brought to the test room at least one hour before the start of the experiment. Mice were administered valproate (VPA; 400 mg/kg, intraperitoneally); or vehicle (35% HPBCD, 10 mL/kg, intraperitoneally); or Compound 1 (0.3 mg/kg, 1 mg/kg, 3 mg/kg or 10 mg/kg, orally) 30 minutes prior to the MES test.
The electroshock apparatus was set to deliver a 50 mA square-wave stimulus, with a 0.8 second duration, a pulse width of 10 milliseconds, and a frequency of 50 Hz. A pair of custom stainless-steel electrodes were soaked in 0.2% agar, and then the subject received bilateral transauricular stimulation through ear-clip electrodes. During the stimulation, mice were manually restrained then released immediately into an observation cage where they were monitored continuously for 60 seconds by an observer blinded to treatment group.
Mice were anesthetized with CO2 and terminal plasma and brain tissue samples were collected. […] The supernatant plasma was pipetted into Eppendorf tubes.
All statistical analyses were conducted using GraphPad Prism 9.3. Means were combined and standard error was calculated using the Satterthwaite Approximation to combine standard deviations. […] ED50 and EC50 values were calculated from these fit curves.

[2] = test system: psychomotor seizures induced by 6-Hz electrical stimulation in CD-1 mice; assay: 6-Hz psychomotor seizure model (32 and 44 mA); type: in vivo, mouse; conditions: 600 mg/kg intraperitoneally
Source text: The 6-Hz test is a validated model of focal seizures for evaluating the anti-seizure potential of compounds. The 6-Hz seizure model can be performed at different stimulation intensities (32 or 44 mA), with the higher intensity (44 mA) used as a model of pharmacoresistant seizures. The positive control valproate is an approved anti-seizure medicine (ASM).
This study evaluated the efficacy of Compound 1 in attenuating psychomotor seizures induced by 6-Hz electrical stimulation at two different stimulation intensities (32 and 44 mA) in wild-type CD-1 mice. Psychomotor seizures are defined as the expression of at least one of the following behaviors: stun/immobility, forelimb clonus, straub tail or lateral head movement within 30 seconds of the stimulus. Protection is defined as a complete absence of the above behaviors within 30 seconds of the stimulus. Doses of Compound 1 used were 1 mg/kg, 3 mg/kg and 6 mg/kg administered orally. Valproate (600 mg/kg, administered intraperitoneally) was used as a positive control.
Male CD-1 mice (Charles River Laboratories; St. Constant, Quebec, CAN) were used for the study. Body weights at the time the experiment was carried out were 30-40 grams. The mice were group-housed in polycarbonate cages according to standard operating procedures. Animals were maintained on a 12-hour light/12 hour dark cycle, with all experimental activities occurring during the light phase. Food and water were available ad libitum. Mice acclimated to the test facility for at least 72 hours prior to testing.
Treatment was conducted using Compound 1 and 35% 2-hydroxypropyl-β-cyclodextrin (35% HPBCD, used as a negative control). Compound 1 stock solution was prepared fresh each experiment day in 35% HPBCD. […] Valproate was prepared fresh each experiment day in a vehicle of saline and dosed at 10 mL/kg.
Mice were administered vehicle (35% HPBCD), a single dose of Compound 1 (1 mg/kg, 3 mg/kg or 6 mg/kg) or valproate (600 mg/kg). Vehicle and Compound 1 were administered via oral gavage 30 minutes prior to […]. Valproate was administered as an intraperitoneal injection 60 minutes prior to the electrical stimulus.
Immediately prior to conducting the 6-Hz seizure test, a brief neurological assessment was performed. Each animal was visually assessed and received a score from 0 to 3 according to the following scoring system: neurological score of 0 corresponds to a normal status; neurological score of 1 corresponds to a modest decrease in spontaneous activity; neurological score of 2 corresponds to a marked decrease in spontaneous activity; and neurological score of 3 corresponds to loss of righting reflex.
Corneal electrodes moistened with saline (ECT unit 57800; Ugo Basile) were used to deliver the electrical stimulus (6-Hz, 0.2 millisecond pulse width, 3 seconds duration). The current delivered was either 32 mA or 44 mA. Immediately after the electrical stimulus, each mouse was monitored continuously for 30 seconds by an observer blinded to the treatment group. […] Mice were scored for the presence or absence of each seizure behavior, with a maximum total score of 4. […] At the end of the 6-Hz seizure test, plasma and brain samples were collected.
Mice were anesthetized with isoflurane, whole blood was collected via cardiac puncture and brains were harvested. […] Plasma and brain samples were stored at −80° C. and analyzed to determine levels of Compound 1. […]

[3] = molecular target: T1, hNav1.6 (Homo sapiens, UniProt Q9UQD0); assay: Peak INa voltage-dependent block (VDB), automated patch clamp in HEK cells; type: cell-based
T1 construct: expressed in transfected cells; host or cells: HEK cells

[4] = molecular target: T2, human Nav1.6 (Homo sapiens, UniProt Q9UQD0); assay: Peak INa use-dependent block (UDB-10 Hz), automated patch clamp in HEK cells; type: cell-based; conditions: for activity dependent block of peak INa (in words): hNav1.6; for Peak INa UDB-10 Hz Hill slope: use-dependent block
T2 construct: HEK-293 cell lines stably expressing human Nav1.6 (NP_055006) were used; expressed in transfected cells

[5] = molecular target: T2, human Nav1.6; assay: ATX-II activated late (persistent) INa block, automated patch clamp in HEK cells; type: cell-based; conditions: for inhibition of and preference for persistent INa (in words): hNav1.6; for Persistent INa Hill slope: hNav1.6 in HEK cells
[6] = molecular target: T2, human Nav1.6; assay: Peak INa tonic block (TB), automated patch clamp in HEK cells; type: cell-based; conditions: ratio of peak INa (TB) to persistent INa IC50
[7] = test system: spontaneous locomotor activity in male CD-1 mice; assay: Spontaneous locomotor activity (sLMA) test, Example 4; conditions: mouse, in vivo
Protocol: The Spontaneous Locomotor Activity (sLMA) test is a validated model for evaluating the potential motor side effects of compounds. The objective of this study was to evaluate the effect of Compound 1 (3, 5.6, 10 and 20 […], p.o.) on spontaneous locomotor activity (sLMA) in male CD-1 mice at 30 minutes post-dose.
(§1) Food and water were available ad libitum.
Dosing solutions were prepared on each experiment day. […] All solutions were protected from light. Samples from dosing solutions were stored at 4° C.
The sLMA test was carried out over two days. Half of the mice from each treatment group was tested on each day.
Animals were p.o. administered Compound 1 or 35% HPBCD (vehicle) 30 minutes prior to the sLMA test.
All mice were anesthetized with CO2. […] The supernatant plasma was pipetted into Eppendorf tubes.

[8] = test system: MES-induced seizures in male CD-1 mice; assay: Maximal electroshock (MES) induced seizure test, Example 3; type: in vivo, mouse; conditions: dose response
Protocol: The maximal electroshock (MES) test is a validated model for evaluating anti-seizure potential of compounds. […] The object of these studies was to evaluate the effect of Compound 1 (0.3, 1, 3 and 10 mg/kg p.o. (oral)) to attenuate MES-induced seizures in male CD-1 mice.
as §1
Dosing solutions were prepared on each experiment day. […] VPA was prepared in saline (Vehicle 1). All solutions were protected from light. All compounds and vehicles were dosed at 10 ml/kg.
The MES test was carried out over two days with half of the mice from each treatment group being tested on each day. Mice were brought to the test room at least one hour before the start of the experiment. […] Mice were randomly assigned into one of the six treatment groups.
Animals were p.o. (oral) administered Compound 1 or 35% HPBCD (Vehicle 2) 30 minutes prior to the MES test or i.p. administered VPA or saline (Vehicle 1) 30 minutes prior to the MES test.
A Grass S88× (Grass Technologies of Astro-Med, Inc., West Warwick, RI) Stimulus Isolation Unit (A385, WPI Inc., USA) was set to deliver a 50 mA square-wave stimulus, with a 0.8 second duration, a pulse width of 10 msec, and a frequency of 50 Hz. […] Each mouse was observed continuously by individuals blinded to treatment conditions and results were recorded. […]
From these fitted curves, ED50 and EC50 values were calculated.

[9] = 400 mg/kg intraperitoneally, listed as valproate

T1 sequence (Q9UQD0 whole entry): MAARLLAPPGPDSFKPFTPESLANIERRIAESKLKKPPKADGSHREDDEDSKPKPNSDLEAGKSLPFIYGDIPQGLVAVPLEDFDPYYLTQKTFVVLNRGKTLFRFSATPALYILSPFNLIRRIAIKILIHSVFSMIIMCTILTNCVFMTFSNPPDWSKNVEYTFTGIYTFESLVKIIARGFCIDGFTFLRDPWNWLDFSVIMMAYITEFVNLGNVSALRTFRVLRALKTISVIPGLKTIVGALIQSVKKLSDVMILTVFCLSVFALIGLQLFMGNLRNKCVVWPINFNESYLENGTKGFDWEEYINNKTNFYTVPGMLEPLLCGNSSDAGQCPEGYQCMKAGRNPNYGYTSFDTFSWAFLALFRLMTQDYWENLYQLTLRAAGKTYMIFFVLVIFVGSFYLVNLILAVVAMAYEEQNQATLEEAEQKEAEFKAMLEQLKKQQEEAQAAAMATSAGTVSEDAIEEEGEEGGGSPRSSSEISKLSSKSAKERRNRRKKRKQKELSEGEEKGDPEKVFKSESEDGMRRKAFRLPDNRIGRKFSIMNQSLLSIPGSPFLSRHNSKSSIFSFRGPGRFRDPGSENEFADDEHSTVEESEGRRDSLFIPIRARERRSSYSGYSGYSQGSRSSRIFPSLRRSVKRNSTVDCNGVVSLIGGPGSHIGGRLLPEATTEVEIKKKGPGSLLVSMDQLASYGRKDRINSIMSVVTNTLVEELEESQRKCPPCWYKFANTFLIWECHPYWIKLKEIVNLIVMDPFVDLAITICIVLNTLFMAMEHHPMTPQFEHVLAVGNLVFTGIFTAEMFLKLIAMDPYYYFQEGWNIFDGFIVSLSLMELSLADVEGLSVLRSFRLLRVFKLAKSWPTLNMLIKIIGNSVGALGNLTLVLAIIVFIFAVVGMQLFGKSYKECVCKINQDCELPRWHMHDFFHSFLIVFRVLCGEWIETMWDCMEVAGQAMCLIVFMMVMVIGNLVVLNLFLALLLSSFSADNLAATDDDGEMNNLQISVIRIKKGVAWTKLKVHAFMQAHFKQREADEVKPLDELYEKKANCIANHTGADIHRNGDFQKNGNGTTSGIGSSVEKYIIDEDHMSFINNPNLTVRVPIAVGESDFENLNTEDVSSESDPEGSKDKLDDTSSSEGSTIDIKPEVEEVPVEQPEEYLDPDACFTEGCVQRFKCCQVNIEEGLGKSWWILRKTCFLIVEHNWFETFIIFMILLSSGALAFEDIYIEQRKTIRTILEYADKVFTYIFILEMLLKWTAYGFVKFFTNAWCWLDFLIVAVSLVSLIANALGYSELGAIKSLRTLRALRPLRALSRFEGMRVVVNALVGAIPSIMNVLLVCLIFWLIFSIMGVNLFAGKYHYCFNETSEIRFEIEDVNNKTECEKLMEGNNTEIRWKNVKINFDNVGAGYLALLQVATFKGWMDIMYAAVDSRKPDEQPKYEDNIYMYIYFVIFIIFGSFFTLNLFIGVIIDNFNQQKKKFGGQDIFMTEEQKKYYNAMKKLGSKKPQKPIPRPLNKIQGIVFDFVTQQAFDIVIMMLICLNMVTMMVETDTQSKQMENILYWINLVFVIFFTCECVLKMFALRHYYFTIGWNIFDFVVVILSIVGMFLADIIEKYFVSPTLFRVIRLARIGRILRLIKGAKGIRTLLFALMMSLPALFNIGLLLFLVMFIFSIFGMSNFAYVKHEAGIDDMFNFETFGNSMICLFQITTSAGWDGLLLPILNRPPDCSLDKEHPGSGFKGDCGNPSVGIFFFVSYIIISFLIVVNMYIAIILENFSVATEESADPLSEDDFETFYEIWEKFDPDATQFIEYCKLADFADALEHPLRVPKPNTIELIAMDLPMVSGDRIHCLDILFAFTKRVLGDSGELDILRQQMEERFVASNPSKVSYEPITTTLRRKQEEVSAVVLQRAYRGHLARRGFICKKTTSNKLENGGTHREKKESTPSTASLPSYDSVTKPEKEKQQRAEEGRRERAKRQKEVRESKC
T2 sequence (Q9UQD0 whole entry): as above

Structure (SMILES) | ED50 ([1]; male CD-1 mice) [mg/kg] | Peak INa VDB Hill slope [3] | Peak INa VDB Ratio to Pers. INa [3] | Peak INa UDB-10 Hz Ratio to Pers. INa [4] | Peak INa UDB-10 Hz Hill slope [4] | Persistent INa Hill slope [5] | Peak INa TB Ratio to Pers. INa [6] | also measured
Cc1cc(N2CCc3cc(F)ccc3C2)cc(C)c1NC(=O)CC(C)(C)C [XEN1101] | 3.8 to 5.4 |  |  |  |  |  |  | 
CCCC(CCC)C(=O)O [Valproic acid] |  |  |  |  |  |  |  | sedation before MES test (in words) ([1]; 400 mg/kg intraperitoneally, listed as Valproate): mild to moderate sedation; protection against MES-induced hindlimb extension (in words) [1, 9]: all mice n=24 were seizure-free; also recorded: protected mice from MES-induced tonic hindlimb extension; sedation before MES test (in words) [1, 9]: nearly all valproate-treated mice showed mild to moderate sedation; average neurological score [2]: 1.2; neurological scores / spontaneous activity ([2]; listed as valproate): modest to marked decrease in spontaneous activity
NC(=O)N1c2ccccc2C=Cc2ccccc21 [Carbamazepine, carbamazepine] | 3.8 to 5.4 | (0.9) | 0.6 | 18 | (0.9) | (1.1) | 30 | UDB preference to TB [4]: no UDB observed; activity dependent block of peak INa (in words) [4]: minimal activity dependent block of peak INa; persistent INa preference to TB [5]: 30 ×; inhibition of and preference for persistent INa (in words) [5]: lower potency and preference for persistent INa; sLMA dose response (in words) [7]: dose-dependent reductions in sLMA; protection against MES-induced seizures (in words) [8]: dose-dependent protection from MES-induced seizures
Nc1nnc(-c2cccc(Cl)c2Cl)c(N)n1 [Lamotrigine, lamotrigine] | 3.8 to 5.4 | (0.9) |  |  | (1.0) | (1.0) |  | activity dependent block of peak INa (in words) [4]: minimal activity dependent block of peak INa; inhibition of and preference for persistent INa (in words) [5]: lower potency and preference for persistent INa; sLMA dose response (in words) [7]: dose-dependent reductions in sLMA; protection against MES-induced seizures (in words) [8]: dose-dependent protection from MES-induced seizures
NC(=O)N1c2ccccc2CC(=O)c2ccccc21 [Oxcarbazepine, oxcarbazepine] |  | (1.1) | 0.3 |  |  | (1.0) | 8 | 
COC[C@@H](NC(C)=O)C(=O)NCc1ccccc1 [Lacosamide, lacosamide] |  | (1.2) | 0.3 | 0.8 | (1.3) | (0.9) |  | 
NC(=O)O[C@@H](Cn1ncnn1)c1ccccc1Cl [Cenobamate, cenobamate] | 3.8 to 5.4 | (0.9) | 0.9 | 11 | (0.7) | (1.1) | 24 | UDB preference to TB [4]: 2.3 ×; ED50 value, protection from MES-induced tonic hindlimb extension ([1]; male CD-1 mice): 4.1 mg/kg; persistent INa preference to TB [5]: 24 ×
O=C1NC(=O)C(c2ccccc2)(c2ccccc2)N1 [Phenytoin, phenytoin] |  | (1.0) | 0.8 | 15 | (0.6) | (0.8) |  | 
